These results are taken from publication PMC11778240, “Synthesis and preclinical evaluation of tigilanol tiglate analogs as latency-reversing agents for the eradication of HIV” (Science Advances, 2025).

For one test, the system named is latent HIV. To be noted: cited from earlier work.
For a further test, the system named is J-Lat clone 10.6 cells. Kind of test: J-Lat HIV latency reversal assay (GFP expression). In kind it is cell-based, Human. To be noted: J-Lat 10.6; for HIV latency reversal time course in words: over 48 hours. An excerpt:
Having shown that our lead compounds bind cell-free PKC isoforms, enter cells, translocate PKC-GFP fusion proteins, and activate NF-κB transcription factors, we next set out to determine whether our analogs were capable of reversing HIV from latency. We performed in vitro assays using T lymphocyte J-Lat clone 10.6, which contains a latent near full-length replication-incompetent integrated HIV DNA genome ([72]). J-Lat 10.6 lacks two viral genes, env and nef, which encode for the envelope protein and an accessory protein, respectively, and thus cannot initiate a spreading HIV infection. The integrated HIV provirus also encodes a GFP reporter gene, allowing latency reversal to be measured by quantification of GFP expression (fig. S1). […] In this latency reversal assay, we quantified GFP expression 48 hours after compound addition and observed bryostatin 1 to be maximally effective at concentrations of 40 nM or higher with latency reversal in 12% of cells (Fig. 8). Given the efficacy of bryostatin 1 as an LRA ([73], [74]), EBC-46 and many of its analogs tested in this J-Lat assay induced latency reversal in >90% of cells. […] SUW427, an esterase-releasable prodrug of EBC-46, also performed similarly to EBC-46 with a maximum efficacy of latency reversal in >90% of cells at a dose of 250 nM. […] The gradual release of EBC-46 from its prodrug form provides an alternative mode of administration that avoids the bolus effect associated with rapid drug administration ([17]). […] This is consistent with its lack of activity in the NF-κB activation assay and its design as a negative control as it is structurally similar to EBC-46 but unable to bind to the C1 domain of PKC at the concentrations used in this assay as it lacks a complete pharmacophore.
HIV latency reversal in-vitro assay
Human T Lymphocyte J-Lat Full Length Cell Line 10.6 (cat #9849) was obtained through the NIH HIV Reagent Program, Division of AIDS, NIAID, NIH and was contributed to the NIH HIV Reagent Program by Dr. Eric Verdin (70). J-Lat 10.6 cells were plated at 5 × 10^5 cells in 180 μL of RF10 media consisting of RPMI media supplemented with 1% Penicillin/Streptomycin and 10% Fetal Bovine Serum (FBS) in 96 -well U -bottom plates. J -Lat 10.6 cells were then stimulated for 48 hr by adding 20 μL of newly designed and synthesized tigilanol tiglate analogs, PKC modulators (bryostatin 1) as our positive control or med ia only (mock) as our negative control. Our negative control was RF10 media as the tigilanol tiglate analogs were freshly diluted with RF10 prior to plating. The final volume was 200 μL per well. Experiments were performed in three independent biological replicates, each completed in technical duplicates (n = 6). After 48 hr stimulation, 96 - well U -bottom plates were centrifuged at 296 RCF for 7 minutes to pellet cells, which were resusp ended in 200 μL of freshly prepared 2% paraformaldehyde (PFA) in PBS. GF P expression was measured 24 -hours post -fixation using the FITC channel on a LSR Fortessa (BD Biosciences) flow cytometer. Data analysis was conducted with FlowJo software version 10.8.1.

The test system of a further test is NF-κB pathway. Kind of test: NF-κB activation assay, A549 cells with SEAP reporter. In kind it is cell-based, Human. Particulars: 24 hours after dosing, A549 cells. An excerpt:
As a high-throughput method of screening compounds for their ability to get into cells and activate immunological pathways related to HIV latency reversal ([46], [70]), we conducted an NF-κB reporter assay using A549 cells stably integrated with a secreted embryonic alkaline phosphatase reporter under the control of a promoter fused to five NF-κB binding sites (Fig. 7B) ([48], [70], [71]).
Human A549-Dual™ Cells supplied by InvivoGen (Cat. code a549d-nfis) and CHO-K1 cells were passaged when about 90% confluency was reached (approximately every three days). With each passage, media was aspirated from the cell layer, which was then washed with PBS. Following aspiration of the PBS, cells were detached from the culture flask with 0.25% GibcoTM Trypsin-EDTA and transferred to a 50 mL conical, which was volumed up with complete pre-warmed DMEM (4.5 g/L glucose, 10% FBS, and 1% Pen-Strep-Glutamine (100 X, 50 mg/mL)) or Ham's F-12K (Kaighn's) Medium supplemented with 10% FBS and 1% Pen-Strep (100 X, 50 mg/mL).
This conical was spun down at 1800 rpm for 3 minutes, the supernatant was removed, and cells were resuspended in their respective fresh, pre-warmed media. To count cells, 10 μL of resuspended cells were added to a sterile microcentrifuge tube and mixed with 10 μL of trypan blue after which 10 μL of the mixture was pipetted into a Countess chamber slide. A Countess™ 3 Automated Cell Counter was subsequently utilized to determine cell viability and concentration.
1 x 10^6 cells were seeded with each passage into a T75 culture flask, and cells were incubated at […]
Human A549 lung carcinoma cells (InvivoGen Cat. code a549d-nfis), stably integrated with a secreted embryonic alkaline phosphatase (SEAP) reporter, allow for the activity of the NF-κB pathway to be monitored. The SEAP reporter is under control of the interferon β (IFN-β) minimal promoter, which is fused to five NF-κB binding sites.
5 × 10^4 A549 cells were plated on Corning® 96 Well TC-Treated Microplates (CLS3595) in 180 μl of pre-warmed DMEM (4.5 g/L glucose, 10% heat-inactivated FBS (30 min at 56 ℃), and 1% Pen-Strep-Glutamine (100 X, 50 mg/mL)). Note that if cells were grown in media containing FBS that is not heat-inactivated, media will contain alkaline phosphatase. In this case, all supernatant must thoroughly be aspirated from the cell pellet obtained after centrifugation before resuspending cells in media containing heat inactivated FBS for plating. Following incubation at 37 °C in 5% CO2 for approximately 24 hours to allow for cell adherence onto the 96 well plate, 1.8 μL of each compound dissolved in DMSO was added in quadruplicate to their respective wells to achieve a final compound concentration of 1500 nM, 500 nM, or 50 nM. 1.8 μL of DMSO was added to wells as negative controls while wells treated with EBC-46 served as positive controls. 24 hours following compound addition, 180 μL of QUANTI-BlueTM Solution (InvivoGen Cat. code rep-qbs)- medium containing QB buffer and QB Reagent for detection and quantification of alkaline phosphatase- were added into wells on a new clear flat-bottom 96-well plate. 20 μL of supernatant of either SEAP-expressing cells incubated with compound or SEAP-expressing cells incubated with DMSO only were added to the wells in the new 96-well plate containing QUANTI-BlueTM Solution. Supernatant and QUANTI-BlueTM Solution were incubated at 37 °C in 5% CO2 for approximately an hour and a half. Following incubation, optical density (OD) at 630 nm was measured for each well using a BioTek Synergy H1 microplate reader under normal read speed and with a delay of 100 msec.

In the next test the test system is HIV. Particulars: HIV-infected, ART-treated humanized mice, cited from earlier work.

Turning to prostratin-C13-naphthyl acetate, the “potency as an LRA relative to prostratin” value in the test with latent HIV is greater than 130 fold.

On to `CCC/C=C/C=C/C(=O)O[C@H]1/C(=C/C(=O)OC)C[C@H]2C[C@H]([C@@H](C)O)OC(=O)C[C@H](O)C[C@@H]3C[C@H](OC(C)=O)C(C)(C)[C@](O)(C[C@@H]4C/C(=C/C(=O)OC)C[C@H](/C=C/C(C)(C)[C@]1(O)O2)O4)O3` [bryostatin 1, reference compound], for which the “latency reversal, % of cells” value in the test with J-Lat clone 10.6 cells (maximally effective at 40 nM or higher, 48 hours) is listed as 12 % of cells. Further, the “NF-κB activation (optical density, 630 nm)” value in the test on NF-κB pathway (50 nM) was 0.47 optical density, 630 nm; in the test on NF-κB pathway (500 nM), 0.41 optical density, 630 nm.

Regarding `CC=C(C)C(=O)OC1C(C)C2(O)C(C3OC3(COC(=O)OCc3ccc(OC(=O)OC)cc3)C(O)C3(O)C(=O)C(C)=CC32)C2C(C)(C)C12OC(=O)C(C)CC` (centres unmarked) [SUW427], the “HIV latency reversal time course in words” value was “clear delayed HIV latency reversal” in the test with J-Lat clone 10.6 cells (100 nM); “almost converged with its parent compound at all time points and reached maximal latency reversal” in the test on J-Lat clone 10.6 cells (250 nM). Besides, in the test with J-Lat clone 10.6 cells (250 nM, 48 hours), the “maximal latency reversal, % of cells” value is recorded as > 90 % of cells. Besides, the “NF-κB activation (optical density, 630 nm)” value in the test with NF-κB pathway (50 nM) is 0.33 optical density, 630 nm; with NF-κB pathway (500 nM), 0.64 optical density, 630 nm.

On to `C=C1C[C@H]2C[C@]3(O)O[C@H](C[C@@H](O)CC(=O)O[C@@H](CO)C[C@@H]4C/C(=C\C(=O)OC)[C@H](OC(=O)CCCCCCC)[C@@](O)(O4)C(C)(C)/C=C/[C@@H](C1)O2)C[C@H](OC(C)=O)C3(C)C` [SUW133], for which the “animals not rebounding in vivo after ART discontinuation” value in the test with HIV (with natural killer cells as kill arm) was 40%. For the same molecule, the “effect on HIV rebound in words” value in the test on HIV (administered alone) is “capable of delaying rebound when administered alone”.
